Data: PMC3566143, “Pantothenamides Are Potent, On-Target Inhibitors of Plasmodium falciparum Growth When Serum Pantetheinase Is Inactivated” (PLoS ONE, 2013)
Like-named read-outs stand apart in the source and are kept apart here.

How the values were obtained:
[1] = system: erythrocytic stage P. falciparum parasites (strain 3D7); assay: SYBR Green I-based in vitro growth assay (96 h); type: cell-based, Plasmodium falciparum; conditions: for IC50: 1 µM pantothenate, 96 h; for effect on parasite growth in fresh Albumax-complete RPMI: fresh medium, up to 200 µM (highest concentration tested)
Procedure: Erythrocytic stage P. falciparum parasites (strain 3D7) were maintained within human erythrocytes in continuous culture essentially as described previously, [25]. P. falciparum-infected erythrocytes were routinely cultured in RPMI 1640 medium supplemented with 25 mM HEPES, 20 mM D-glucose, 200 µM hypoxanthine, 24 mg/L gentamycin and Albumax II (0.6%, w/v), which, hereafter is referred to as Albumax-complete RPMI. For several days prior to carrying out the assays testing the effect of compounds on the growth of P. falciparum in medium supplemented with human serum (instead of Albumax II), the parasites were cultured in the same medium mentioned above, except that human serum (10%, v/v, pooled from different blood donors) was used rather than Albumax II. This medium is hereafter referred to as human serum-complete RPMI.
The in vitro antiplasmodial activity of test compounds was determined using the malaria SYBR Green I-based fluorescence assay described by Smilkstein et al., with minor modifications. Briefly, P. falciparum-infected erythrocytes were incubated in culture medium containing two-fold dilutions of the test compounds in 96-well microtiter plates. Assays were initiated with ring-stage P. falciparum-infected erythrocytes at a hematocrit and parasitemia of 1%. Wells containing infected erythrocytes in the presence of chloroquine (0.25–2 µM) served as zero growth controls and wells containing infected erythrocytes in the absence of chloroquine or test compounds served as 100% parasite growth controls. Plates were incubated at 37°C under an atmosphere of 96% nitrogen, 3% carbon dioxide and 1% oxygen for 96 h, before 100 µL from each well was mixed with 100 µL of SYBR Safe DNA gel stain (0.2 µL/mL) in 20 mM Tris, pH 7.5, 5 mM ethylenediaminetetraacetic acid (EDTA), 0.008% (w/v) saponin, 0.08% (v/v) Triton X-100, in a second 96-well microtitre plate. Fluorescence was measured using a FLUOstar OPTIMA multidetection microplate reader from BMG LABTECH with excitation and emission wavelengths of 490 and 520 nm, respectively. The 50% inhibitory concentration (IC50) of each test compound under each test condition was calculated by fitting the data to a sigmoidal curve (typically y = a/(1+ (x/x0)^b) using nonlinear least squares regression (SigmaPlot, Systat Software) and averaging the IC50 estimates from independent experiments.
The antiplasmodial activity of test compounds was assessed in media that had been subjected to different pre-incubations. “Fresh” medium refers to medium that was stored for a maximum of 48 h at 4°C, and incubated at 37°C for a maximum of 1 h, prior to use. “Aged” medium refers to medium that was stored for a minimum of one week at 4°C and incubated intermittently at 37°C, or medium incubated continuously at 37°C for 40 h soon after preparation. As indicated at the relevant positions within the “Results” section, for some experiments the fresh medium used was, more specifically, medium used immediately following preparation, and the aged medium used was, more specifically, medium that was incubated at 37°C for 40 h immediately prior to use.

P. falciparum PanK = assay: [14C]pantothenate phosphorylation assay with P. falciparum lysate; type: biochemical, Plasmodium falciparum; conditions: 100 µM pantothenamide, 0.2 µM [14C]pantothenate, 10 min
Procedure: To assess the effect of the pantothenamides on pantothenate phosphorylation by P. falciparum PanK, the phosphorylation of [^14C]pantothenate by P. falciparum lysates was measured in the presence and absence of a single concentration of each pantothenamide. P. falciparum lysate was prepared from trophozoite stage parasites “isolated” from their host erythrocyte by treatment with 0.05% (w/v) saponin (essentially as described by Saliba et al.), and washed (five times) in HEPES-buffered saline (125 mM NaCl, 5 mM KCl, 20 mM D-glucose, 25 mM HEPES, 1 mM MgCl2, pH 7.1). Lysates were prepared as described by van Schalkwyk et al., except that 10 mM potassium phosphate, pH 7.4 (rather than 10 mM Tris, pH 7.4), was used to lyse the cells. Aliquots of lysate were stored at −20°C. The concentration of cell lysates was determined from cell counts made using an improved Neubauer hemocytometer.
[^14C]Pantothenate phosphorylation was assayed using the Somogyi reagent essentially as described by Saliba et al., except that pantothenate phosphorylation was terminated by heat denaturation (rather than acid denaturation) of the protein in reaction aliquots. Briefly, P. falciparum lysate was added to solutions (at 37°C) of 50 mM Tris, 5 mM ATP, 5 mM MgCl2, at pH 7.4, containing [^14C]pantothenate (at a final concentration of 0.01 µCi/mL, or 0.2 µM), and a pantothenamide (at a final concentration of 100 µM) or an equivalent volume of solvent. Typically, lysate prepared from 5.4–6.5×10^7 parasites was present in each mL of reaction solution. Zero phosphorylation control reactions were prepared by adding a corresponding volume of 10 mM potassium phosphate instead of parasite lysate. Following a ten minute incubation at 37°C (a period during which pantothenate phosphorylation increased linearly with time in the absence of inhibitors) 200 µL aliquots of the [^14C]pantothenate phosphorylation reactions were transferred in duplicate to microcentrifuge tubes, and immediately incubated at 95°C for 10 min to terminate phosphorylation. Terminated reaction samples were centrifuged at 15 800×g for 10 min to pellet the denatured protein, before two aliquots of each supernatant (typically 80 µL) were transferred to new microcentrifuge tubes. To one aliquot, 500 µL Somogyi reagent was added, and to the other, 500 µL water was added. The samples were processed for determination of phosphorylated [^14C]pantothenate as described previously.

[2] = Plasmodium falciparum, 3D7, 96 h, fresh Albumax-complete RPMI, read-out: IC50 against P. falciparum, fresh medium, 1 μM pantothenate
[3] = Plasmodium falciparum, 3D7, aged Albumax-complete RPMI (37°C for 40 h), read-out: IC50 against P. falciparum, aged medium, 1 μM pantothenate
[4] = fresh Albumax-complete RPMI, IC50 at 100 µM pantothenate / IC50 at 1 µM pantothenate

Structure (SMILES) | IC50 [1, 2] [µM] | IC50 [1, 3] [µM] | Inhibition of pantothenate phosphorylation at 100 μM (P. falciparum PanK) [%] | other results
CC1C(NC(=O)CCNC(=O)C(O)C(C)(C)CO)CC2CC1C2(C)C (centres unmarked) [Compound 10] | > 200 | > 200 | 100 | –
COc1cc(CNC(=O)CCNC(=O)[C@H](O)C(C)(C)CO)cc(OC)c1OC [Compound 6] | > 200 | > 200 | 96 ± 2 | –
COc1ccc(CNC(=O)CCNC(=O)[C@H](O)C(C)(C)CO)cc1 [Compound 9] | > 200 | – | 99 ± 1 | –
COCCNC(=O)CCNC(=O)[C@H](O)C(C)(C)CO [Compound 15] | > 200 | > 200 | 100 | effect on parasite growth in fresh Albumax-complete RPMI [1]: lacked antiplasmodial activity
CCCNC(=O)CCNC(=O)[C@H](O)C(C)(C)CO [Compound 11] | 134 ± 22 | 0.34 ± 0.01 | 100 | –
CC(C)(CO)[C@@H](O)C(=O)NCCC(=O)NCCN1CCOCC1 [Compound 8] | > 200 | > 200 | 94 ± 5 | –
CC(C)(CO)[C@@H](O)C(=O)NCCCO [pantothenol, reference compound] | – | – | – | inhibition at 2000 µM ([1]; Plasmodium falciparum, 3D7, 2 mM, Albumax-complete RPMI supplemented with 100 µM pantothenate, fresh and aged, read-out: inhibition of growth at highest concentration tested with 100 µM pantothenate): < 50%; effect of additional Albumax II on activity in aged medium ([1]; aged medium + additional Albumax II (0.6%, w/v)): unaffected; activity in aged versus fresh Albumax-complete RPMI ([1]; aged vs fresh medium, P = 0.32): comparable in aged and fresh medium
CCOCCNC(=O)CCNC(=O)[C@H](O)C(C)(C)CO [Compound 22] | 162 ± 20 | 1.4 ± 0.1 | 100 | –
CCOCCCNC(=O)CCNC(=O)[C@H](O)C(C)(C)CO [Compound 19] | 49 ± 8 | 0.27 ± 0.06 | 96 ± 4 | fold-increase in IC50 following supplementation with 100 µM pantothenate, aged medium ([1]; aged Albumax-complete RPMI, IC50 at 100 µM pantothenate / IC50 at 1 µM pantothenate): 24±1 times; fold-increase in IC50 following supplementation with 100 µM pantothenate, fresh medium [1, 4]: 1.7±0.4 times
CC(C)(CO)[C@@H](O)C(=O)NCCC(=O)NCCO [Compound 16] | > 200 | – | 100 | effect on parasite growth in fresh Albumax-complete RPMI [1]: without effect
CCCCCCCNC(=O)CCNC(=O)[C@H](O)C(C)(C)CO [Compound 2] | > 200 | – | 99 ± 1 | –
CC(C)(CO)[C@@H](O)C(=O)NCCC(=O)NCCCO [Compound 20] | > 200 | – | 94 ± 6 | effect on parasite growth in fresh Albumax-complete RPMI [1]: without effect
CSCCCNC(=O)CCNC(=O)[C@H](O)C(C)(C)CO [Compound 18] | 76 ± 12 | 0.23 ± 0.06 | 98 ± 2 | –
CC(CCc1ccccc1)NC(=O)CCNC(=O)[C@H](O)C(C)(C)CO (some centres unmarked) [Compound 5] | > 200 | > 200 | 94 ± 3 | –
COc1ccc(CCNC(=O)CCNC(=O)[C@H](O)C(C)(C)CO)cc1OC [Compound 4] | > 200 | > 200 | 100 | –
CC(C)(CO)[C@@H](O)C(=O)NCCC(=O)NCCc1ccccc1 [Compound 3] | – | – | 100 | IC50 ([1]; Plasmodium falciparum, 3D7, 96 h, aged Albumax-complete RPMI, read-out: IC50 against P. falciparum in aged medium): 0.02 ± 0.002 µM
CCSCCNC(=O)CCNC(=O)[C@H](O)C(C)(C)CO [Compound 17] | 44 ± 5 | 0.067 ± 0.002 | 95 ± 5 | –
COCCCNC(=O)CCNC(=O)[C@H](O)C(C)(C)CO [Compound 21] | 166 ± 18 | 1.9 ± 0.5 | 98 ± 2 | –
CC(C)(CO)[C@@H](O)C(=O)NCCC(=O)N1CCN(Cc2ccccc2)CC1 [Compound 7] | > 200 | > 200 | 98 ± 2 | –
CCCCCNC(=O)CCNC(=O)[C@H](O)C(C)(C)CO [Compound 1] | 124 ± 15 | 2 ± 0.2 | 99 ± 1 | –
CSCCNC(=O)CCNC(=O)[C@H](O)C(C)(C)CO [Compound 14] | > 200 | > 200 | 100 | effect on parasite growth in fresh Albumax-complete RPMI [1]: little effect
CC(C)=CCC/C(C)=C/CNC(=O)CCNC(=O)[C@H](O)C(C)(C)CO [Compound 13] | 66 ± 4 | 150 ± 5 | 100 | fold-increase in IC50 following supplementation with 100 µM pantothenate, fresh medium [1, 4]: 1±0.1 times
